The test system of test [1] is Rattus norvegicus. Nature of the test: Anti-inflammatory activity in Rattus norvegicus Wistar albino (rat) assessed as inhibition of carrageenan-induced paw edema after 180 min (reference value: 22.3%). It counts as functional. Background: In the carrageenan paw model, swelling and tenderness develop within hours.
Test [2] has as its system Rattus norvegicus. The experiment in a line: Anti-inflammatory activity in Rattus norvegicus Wistar albino (rat) assessed as inhibition of carrageenan-induced paw edema after 30 min (reference value: 30.1%). It counts as functional.
In test [3] the test system is Rattus norvegicus. Nature of the test: Anti-inflammatory activity in Rattus norvegicus Wistar albino (rat) assessed as growth of carrageenan-induced paw edema after 90 min (reference value: 1.36 +/- 0.070%). It counts as functional.
Test [4] relates to Rattus norvegicus. The experiment in a line: Anti-inflammatory activity in Rattus norvegicus Wistar albino (rat) assessed as growth of carrageenan-induced paw edema after 30 min (reference value: 1.27 +/- 0.043%). Format: functional.
Test [5] has as its system Rattus norvegicus. The experiment in a line: Anti-inflammatory activity in Rattus norvegicus Wistar albino (rat) assessed as inhibition of carrageenan-induced paw edema after 90 min (reference value: 38.7%).

`COC(=O)c1c(C)nn(-c2ccccc2)c1OCCCOc1c(C(=O)OC)c(C)nn1-c1ccccc1`: the results for the “inhibition (INH)” value in the test on Rattus norvegicus [1], in the test with Rattus norvegicus [2] and with Rattus norvegicus [5] were 17.9%, 15.1% and 24.4%, respectively. Also, the Activity turned out to be 1.49% with Rattus norvegicus [3] and 1.34% in the test on Rattus norvegicus [4].

For `COC(=O)c1c(C)nn(-c2ccccc2)c1OCCCN1C(=O)c2ccccc2C1=O`, the “inhibition (INH)” value with Rattus norvegicus [1] is recorded as 1.7%; in the test on Rattus norvegicus [2], 5.9%; in the test on Rattus norvegicus [5] it was 4.8%. Moreover, the values for the Activity with Rattus norvegicus [3] and in the test on Rattus norvegicus [4] were 1.39% and 1.25%, respectively.

As to `CCOC(=O)c1c(C)nn(-c2ccccc2)c1OCCCN1C(=O)c2ccccc2C1=O`, the “inhibition (INH)” value in the test on Rattus norvegicus [1] stood at 39.3%; with Rattus norvegicus [2], 38.9%; in the test with Rattus norvegicus [5], 44.7%. The values for the Activity in the test on Rattus norvegicus [3] and in the test with Rattus norvegicus [4] were 1.18% and 1.11%, respectively.

In the case of `COC(=O)c1c(C)nn(-c2ccccc2)c1OCCCn1c(C)cc(C)c(C#N)c1=O`, the “inhibition (INH)” value in the test on Rattus norvegicus [1] was 18.5%; in the test on Rattus norvegicus [2] it was 17.6%; in the test on Rattus norvegicus [5] it was 29.7%. The Activity was 1.03% with Rattus norvegicus [3] and 0.94% in the test with Rattus norvegicus [4].

For the molecule `CCOC(=O)c1c(C)nn(-c2ccccc2)c1OCCCn1c(C)cc(C)c(C#N)c1=O`, the results for the “inhibition (INH)” value in the test with Rattus norvegicus [1], with Rattus norvegicus [2] and with Rattus norvegicus [5] were 20.4%, 22.4% and 28.5%, respectively. Moreover, the Activity in the test with Rattus norvegicus [3] stood at 1.16%; in the test with Rattus norvegicus [4], 1.05%.

Regarding `COC(=O)c1c(C)nn(-c2ccccc2)c1OCCCOc1nc(C)cc(C)c1C#N`, the “inhibition (INH)” value in the test with Rattus norvegicus [1] is given as 24.9%; with Rattus norvegicus [2] it was 16.8%; with Rattus norvegicus [5], 28.7%. Further, the values for the Activity with Rattus norvegicus [3] and in the test on Rattus norvegicus [4] were 0.92% and 0.81%, respectively.

Regarding `CCOC(=O)c1c(C)nn(-c2ccccc2)c1OCCCOc1nc(C)cc(C)c1C#N`, the “inhibition (INH)” value in the test on Rattus norvegicus [1] worked out at 16.8%; with Rattus norvegicus [2], 21.4%; in the test on Rattus norvegicus [5], 24.6%. For the same molecule, the Activity in the test on Rattus norvegicus [3] was 1.18%; in the test with Rattus norvegicus [4], 1.22%.

For the molecule `CS(=O)(=O)Nc1ccc([N+](=O)[O-])cc1Oc1ccccc1` [NIMESULIDE], the “inhibition (INH)” value in the test with Rattus norvegicus [1] amounted to 2.54%; with Rattus norvegicus [2], 10.8%; in the test on Rattus norvegicus [5], 7.9%. For the same molecule, the results for the Activity in the test with Rattus norvegicus [3] and with Rattus norvegicus [4] were 1.25% and 1.29%, respectively.

The record behind these values is ChEMBL document CHEMBL3044719, “Synthesis of pyrazole-based 1,5-diaryl compounds as potent anti-inflammatory agents” (2012).
